Our source for the viability values is ChEMBL document CHEMBL5712922, “Synergistic effects of type I PRMT and PARP inhibitors against non-small cell lung cancer cells” (Clin Epigenetics, 2021).

The structures appear in SMILES notation. Structures can show the parent of a compound that is named as a salt. Residues, ends and D or L forms follow the SMILES beside them.

The subject of this test is A549. The test can be described thus: Antiproliferative against human A549 cells assessed as viable cells pretreated with MS023 for 24 hrs followed by compound addition at 10 uM measured after for 24 hrs relative to control. Conditions: A549, 24 h, read-out: Activity.
Consider `C/C(=N\NC(=O)c1cccc(S(=O)(=O)N2CCOCC2)c1)c1cc(Cl)ccc1O`, for which the viability at 10 µM amounted to 54.2%.

As to `Cn1c(/C=C/C(=O)NO)ccc1/C=C/C(=O)c1cccc(F)c1`, the viability at 10 µM came out at 54.2%.

In the case of `O=C(Nc1ccccc1-c1cn2c(CN3CCNCC3)csc2n1)c1cnc2ccccc2n1`, the viability at 10 µM was determined as 54.2%.

As for `CC(C)C[C@H](NC(=O)[C@H](Cc1ccccc1)NC(=O)[C@H](CCC(N)=O)NC(=O)[C@H](Cc1ccc(O)cc1)NC(=O)[C@H](C)NC(=O)CNC(=O)[C@H](CCCCN)NC(=O)[C@H](Cc1c[nH]c2ccccc12)NC(=O)[C@@H](NC(=O)[C@H](Cc1c[nH]c2ccccc12)NC(=O)[C@H](CCCCN)NC(=O)CNC(=O)[C@H](CC(N)=O)NC(=O)[C@H](CCC(=O)O)NC(=O)[C@H](Cc1c[nH]c2ccccc12)NC(=O)[C@@H](NC(=O)[C@H](Cc1c[nH]c2ccccc12)NC(=O)[C@H](CO)NC(=O)CNC(=O)[C@@H]1CCCN1C(=O)[C@H](Cc1c[nH]c2ccccc12)NC(=O)[C@H](CCC(N)=O)NC(=O)[C@H](Cc1ccccc1)NC(=O)CNC(=O)[C@@H](N)Cc1cnc[nH]1)[C@@H](C)O)[C@@H](C)O)C(=O)N[C@@H](CCCCN)C(=O)NCC(=O)NCC(=O)NCC(=O)NCC(=O)N[C@@H](CO)C(=O)N[C@@H](CCCNC(=N)N)C(=O)N[C@@H](CCCNC(=N)N)C(=O)N[C@@H](CCCNC(=N)N)C(=O)N[C@@H](CCCNC(=N)N)C(=O)N[C@@H](CCCNC(=N)N)C(=O)N[C@@H](CCCNC(=N)N)C(=O)N[C@@H](CCCNC(=N)N)C(=O)N[C@@H](CCCNC(=N)N)C(=O)N[C@@H](CCCNC(=N)N)C(=O)O` (H-HGFQWPGSWTWENGKWTWKGAYQFLKGGGGSRRRRRRRRR-OH), the viability at 10 µM is 54.2%.

On to `COc1cc2c(cc1O)CC[C@@H]1[C@@H]2CC[C@]2(C)[C@@H](O)CC[C@@H]12` [2-METHOXYESTRADIOL], for which the viability at 10 µM stood at 54.2%.

Turning to `NC(=O)c1cccc(N)c1` [3-AMINOBENZAMIDE], the viability at 10 µM is 54.2%.

`CN(C)Cc1c(C(=O)NCCOc2ccc(C(=O)NO)cc2)oc2ccccc12` [ABEXINOSTAT]: the viability at 10 µM amounted to 54.2%.

`COc1cc(Nc2ncc3c(n2)-c2ccc(Cl)cc2C(c2c(F)cccc2OC)=NC3)ccc1C(=O)O` [ALISERTIB]: the viability at 10 µM was 54.2%.

As to `Cc1csc(-c2nnc(Nc3ccc(Oc4ncccc4-c4ccnc(N)n4)cc3)c3ccccc23)c1` [AMG-900], the viability at 10 µM amounted to 54.2%.

On to `CCCCCCCCCCCCCCCc1cccc(O)c1C(=O)O` [ANACARDIC ACID], for which the viability at 10 µM was determined as 54.2%.

Consider `COc1cc(OC)c2c(=O)[nH]c(-c3cc(C)c(OCCO)c(C)c3)nc2c1` [APABETALONE], for which the viability at 10 µM turned out to be 54.2%.

Consider `CC(C)[C@H](C(=O)Nc1ccc(C(=O)NO)cc1)c1ccccc1` [AR-42], for which the viability at 10 µM was 54.2%.

As for `O=C(Nc1c[nH]nc1-c1nc2ccc(CN3CCOCC3)cc2[nH]1)NC1CC1` [AT-9283], the viability at 10 µM is 54.2%.

In the case of `Nc1ncn([C@@H]2O[C@H](CO)[C@@H](O)[C@H]2O)c(=O)n1` [AZACITIDINE], the viability at 10 µM was found to be 54.2%.

For the molecule `Cc1cc(Nc2nc(N[C@@H](C)c3ncc(F)cn3)ncc2Cl)[nH]n1` [AZD-1480], the viability at 10 µM was found to be 54.2%.

On to `CCS(=O)(=O)N1CC(CC#N)(n2cc(-c3ncnc4[nH]ccc34)cn2)C1` [BARICITINIB], for which the viability at 10 µM was found to be 54.2%.

With `O=C(/C=C/c1cccc(S(=O)(=O)Nc2ccccc2)c1)NO` [BELINOSTAT], the viability at 10 µM is 54.2%.

Take `Cc1sc2c(c1C)C(c1ccc(Cl)cc1)=N[C@@H](CC(=O)Nc1ccc(O)cc1)c1nnc(C)n1-2` [BIRABRESIB]: the viability at 10 µM stood at 54.2%.

Regarding `Cc1cn([C@H]2O[C@@H](CO)[C@H](O)[C@H]2F)c(=O)[nH]c1=O` [CLEVUDINE], the viability at 10 µM was 54.2%.

As to `C#Cc1cccc(Nc2ncnc3cc(OC)c(OCCCCCCC(=O)NO)cc23)c1` [CUDC-101], the viability at 10 µM stood at 54.2%.

As to `Cc1nc(N)sc1-c1ccnc(Nc2ccc(N3CCOCC3)cc2)n1` [CYC-116], the viability at 10 µM was determined as 54.2%.

As to `Nc1ccn([C@@H]2O[C@H](CO)[C@@H](O)[C@@H]2O)c(=O)n1` [CYTARABINE], the viability at 10 µM came out at 54.2%.

With `O=C(/C=C/c1ccc(CN(CCO)CCc2c[nH]c3ccccc23)cc1)NO` [DACINOSTAT], the viability at 10 µM was 54.2%.

Turning to `CO[C@@H](C(=O)N1Cc2[nH]nc(NC(=O)c3ccc(N4CCN(C)CC4)cc3)c2C1)c1ccccc1` [DANUSERTIB], the viability at 10 µM was 54.2%.

In the case of `O=c1ccc2ccc(O)c(O)c2o1` [DAPHNETIN], the viability at 10 µM was 54.2%.

As to `CC[C@@](C)(Nc1ccnc(-c2c[nH]c3ncccc23)n1)C(=O)NCC(F)(F)F` [DECERNOTINIB], the viability at 10 µM amounted to 54.2%.

In the case of `Nc1ncn([C@H]2C[C@H](O)[C@@H](CO)O2)c(=O)n1` [DECITABINE], the viability at 10 µM was found to be 54.2%.

Consider `CCN(CCO)CCCOc1ccc2c(Nc3cc(CC(=O)Nc4cccc(F)c4)[nH]n3)ncnc2c1` [DEFOSBARASERTIB], for which the viability at 10 µM amounted to 54.2%.

On to `Cn1cc(-c2ccc(S(=O)(=O)n3ccc(/C=C/C(=O)Nc4ccccc4N)c3)cc2)cn1` [DOMATINOSTAT], for which the viability at 10 µM came to 54.2%.

For the molecule `O=c1oc2c(O)c(O)cc3c(=O)oc4c(O)c(O)cc1c4c23` [ELLAGIC ACID], the viability at 10 µM came out at 54.2%.

With `Cc1cc(Nc2cc(N3CCN(C)CC3)nc(/C=C/c3ccccc3)n2)n[nH]1` [ENMD-2076], the viability at 10 µM was found to be 54.2%.

Consider `CCN(CC)C(=O)/C(C#N)=C/c1cc(O)c(O)c([N+](=O)[O-])c1` [ENTACAPONE], for which the viability at 10 µM was 54.2%.

On to `Nc1ccccc1NC(=O)c1ccc(CNC(=O)OCc2cccnc2)cc1` [ENTINOSTAT], for which the viability at 10 µM came out at 54.2%.

With `Cc1cnc(Nc2ccc(OCCN3CCCC3)cc2)nc1Nc1cccc(S(=O)(=O)NC(C)(C)C)c1` [FEDRATINIB], the viability at 10 µM is 54.2%.

Turning to `O=C(Nc1nc2cccc(-c3ccc(CN4CCS(=O)(=O)CC4)cc3)n2n1)C1CC1` [FILGOTINIB], the viability at 10 µM turned out to be 54.2%.

For the molecule `COc1ccc(-c2nc(N3CCOCC3)c3sc(CN(C)c4ncc(C(=O)NO)cn4)cc3n2)cn1` [FIMEPINOSTAT], the viability at 10 µM turned out to be 54.2%.

For the molecule `Cc1cc(Nc2cc(CN3CCOCC3)c3nc(C)c(Cc4ccc(Cl)cc4F)n3n2)n[nH]1` [GANDOTINIB], the viability at 10 µM stood at 54.2%.

Turning to `Nc1ccn([C@@H]2O[C@H](CO)[C@@H](O)C2(F)F)c(=O)n1` [GEMCITABINE], the viability at 10 µM stood at 54.2%.

As to `CCN(CC)Cc1ccc2cc(COC(=O)Nc3ccc(C(=O)NO)cc3)ccc2c1` [GIVINOSTAT], the viability at 10 µM was determined as 54.2%.

As to `CCn1cc(-c2ccnc3[nH]c(-c4cccc(CN(C)C)c4)cc23)c(-c2ccc(NC(=O)N(C)C)cc2)n1` [GSK-1070916], the viability at 10 µM worked out at 54.2%.

For the molecule `CCS(=O)(=O)Nc1ccc2c(c1)/C(=C(/Nc1ccc(CN3CCCCC3)cc1)c1ccccc1)C(=O)N2` [HESPERADIN], the viability at 10 µM was found to be 54.2%.

As to `Nc1nc(Nc2ccc(S(N)(=O)=O)cc2)nn1C(=O)c1c(F)cccc1F` [JNJ-7706621], the viability at 10 µM amounted to 54.2%.

For `O=C(c1ccc(/C=C/c2n[nH]c3ccccc23)cc1)N1CCNCC1` [KW-2449], the viability at 10 µM came out at 54.2%.

As to `Nc1nc(OCc2cc(Br)cs2)c2[nH]cnc2n1` [LOMEGUATRIB], the viability at 10 µM is 54.2%.

`CO[C@@]12[C@H](COC(N)=O)C3=C(C(=O)C(C)=C(N)C3=O)N1C[C@@H]1N[C@@H]12` [MITOMYCIN]: the viability at 10 µM is 54.2%.

Regarding `NC(=O)c1ncn([C@@H]2O[C@H](CO)[C@@H](O)[C@H]2O)c1O` [MIZORIBINE], the viability at 10 µM is 54.2%.

Take `O=C(O)[C@]1(Cc2cccc(Nc3nccs3)n2)CC[C@@H](Oc2cccc(Cl)c2F)CC1` [MK-5108]: the viability at 10 µM worked out at 54.2%.

As to `O=C(O)c1ccc(Nc2ncc3c(n2)-c2ccc(Cl)cc2C(c2c(F)cccc2F)=NC3)cc1` [MLN-8054], the viability at 10 µM was 54.2%.

`Nc1ccccc1NC(=O)c1ccc(CNc2nccc(-c3cccnc3)n2)cc1` [MOCETINOSTAT]: the viability at 10 µM came out at 54.2%.

Turning to `CCNC(=O)C[C@@H]1N=C(c2ccc(Cl)cc2)c2cc(OC)ccc2-n2c(C)nnc21` [MOLIBRESIB], the viability at 10 µM stood at 54.2%.

As to `N#CCNC(=O)c1ccc(-c2ccnc(Nc3ccc(N4CCOCC4)cc3)n2)cc1` [MOMELOTINIB], the viability at 10 µM came out at 54.2%.

`CCCCN(Cc1ccc(C(=O)NO)cc1)C(=O)Nc1ccccc1` [NEXTURASTAT A]: the viability at 10 µM was 54.2%.

With `CCn1cc(C(=O)O)c(=O)c2cc(F)c(N3CCNCC3)cc21` [NORFLOXACIN], the viability at 10 µM was found to be 54.2%.

Consider `CNS(=O)(=O)C[C@H]1CC[C@H](N(C)c2[nH]cnc3nccc2-3)CC1` [OCLACITINIB], for which the viability at 10 µM was 54.2%.

On to `CC1COc2c(N3CCN(C)CC3)c(F)cc3c(=O)c(C(=O)O)cn1c23` (centres undefined) [OFLOXACIN], for which the viability at 10 µM stood at 54.2%.

For `C1=N/C2=N/c3ccc(OCCN4CCCC4)c(c3)COC/C=C/COCc3cccc(c3)C(=C1)N2` [PACRITINIB], the viability at 10 µM is 54.2%.

For `Cc1[nH]c2ccccc2c1CCNCc1ccc(/C=C/C(=O)NO)cc1` [PANOBINOSTAT], the viability at 10 µM is 54.2%.

Take `CCc1cccc(CC)c1NC(=O)N1Cc2[nH]nc(NC(=O)c3ccc(N4CCN(C)CC4)cc3)c2C1` [PHA-680632]: the viability at 10 µM came out at 54.2%.

With `CC(C)N(C[C@H]1O[C@@H](n2cnc3c(N)ncnc32)[C@H](O)[C@@H]1O)[C@H]1C[C@@H](CCc2nc3cc(C(C)(C)C)ccc3[nH]2)C1` [PINOMETOSTAT], the viability at 10 µM was found to be 54.2%.

With `COc1cccc2c1C(=O)c1c(O)c3c(c(O)c1C2=O)C[C@@](O)(C(=O)CO)C[C@@H]3O[C@H]1C[C@H](N)[C@H](O[C@@H]2CCCCO2)[C@H](C)O1` [PIRARUBICIN], the viability at 10 µM worked out at 54.2%.

On to `CCCCc1nc2cc(/C=C/C(=O)NO)ccc2n1CCN(CC)CC` [PRACINOSTAT], for which the viability at 10 µM was determined as 54.2%.

Consider `CCN(CC)CCNC(=O)c1ccc(N)cc1` [PROCAINAMIDE HYDROCHLORIDE], for which the viability at 10 µM was determined as 54.2%.

For the molecule `O=c1c(O)c(-c2ccc(O)c(O)c2)oc2cc(O)cc(O)c12` [QUERCETIN], the viability at 10 µM came to 54.2%.

With `Cn1cc(CNCC2CCN(c3ncc(C(=O)NO)cn3)CC2)c2ccccc21` [QUISINOSTAT HYDROCHLORIDE], the viability at 10 µM worked out at 54.2%.
